Reference: patent publication US20090149458A1, “PYRROLO[3,2-d]PYRIMIDINE COMPOUNDS AND THEIR USE AS PI3 KINASE AND mTOR KINASE INHIBITORS” (Wyeth, priority 2007, published 2009)

How the values were obtained:
Type in all cases: biochemical
[1] = target: T1, human TOR (Homo sapiens, UniProt P42345); assay: human TOR kinase assay with purified enzyme, DELFIA format; details: FLAG-TOR, 100 μM ATP, His6-S6K substrate;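 note: 2 h kinase reaction at room temperature, phosphorylation of S6K at T389 detected with a europium-labelled antibody after plate capture, DMSO vehicle as control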
T1 construct: FLAG

[2] = target: PI3 Kinase α (Homo sapiens, UniProt P42336); assay: PI3K fluorescence polarization assay (PI3 Kinase α); details: 20 uM PIP2, 25 uM ATP;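 note: enzyme reaction with inhibitor or DMSO control, 30–60 min at room temperature, stopped by EDTA, then TAMRA detector with GST-GRP fluorescence polarization read after 90–110 min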
PI3 Kinase α, sequence (P42336 whole entry): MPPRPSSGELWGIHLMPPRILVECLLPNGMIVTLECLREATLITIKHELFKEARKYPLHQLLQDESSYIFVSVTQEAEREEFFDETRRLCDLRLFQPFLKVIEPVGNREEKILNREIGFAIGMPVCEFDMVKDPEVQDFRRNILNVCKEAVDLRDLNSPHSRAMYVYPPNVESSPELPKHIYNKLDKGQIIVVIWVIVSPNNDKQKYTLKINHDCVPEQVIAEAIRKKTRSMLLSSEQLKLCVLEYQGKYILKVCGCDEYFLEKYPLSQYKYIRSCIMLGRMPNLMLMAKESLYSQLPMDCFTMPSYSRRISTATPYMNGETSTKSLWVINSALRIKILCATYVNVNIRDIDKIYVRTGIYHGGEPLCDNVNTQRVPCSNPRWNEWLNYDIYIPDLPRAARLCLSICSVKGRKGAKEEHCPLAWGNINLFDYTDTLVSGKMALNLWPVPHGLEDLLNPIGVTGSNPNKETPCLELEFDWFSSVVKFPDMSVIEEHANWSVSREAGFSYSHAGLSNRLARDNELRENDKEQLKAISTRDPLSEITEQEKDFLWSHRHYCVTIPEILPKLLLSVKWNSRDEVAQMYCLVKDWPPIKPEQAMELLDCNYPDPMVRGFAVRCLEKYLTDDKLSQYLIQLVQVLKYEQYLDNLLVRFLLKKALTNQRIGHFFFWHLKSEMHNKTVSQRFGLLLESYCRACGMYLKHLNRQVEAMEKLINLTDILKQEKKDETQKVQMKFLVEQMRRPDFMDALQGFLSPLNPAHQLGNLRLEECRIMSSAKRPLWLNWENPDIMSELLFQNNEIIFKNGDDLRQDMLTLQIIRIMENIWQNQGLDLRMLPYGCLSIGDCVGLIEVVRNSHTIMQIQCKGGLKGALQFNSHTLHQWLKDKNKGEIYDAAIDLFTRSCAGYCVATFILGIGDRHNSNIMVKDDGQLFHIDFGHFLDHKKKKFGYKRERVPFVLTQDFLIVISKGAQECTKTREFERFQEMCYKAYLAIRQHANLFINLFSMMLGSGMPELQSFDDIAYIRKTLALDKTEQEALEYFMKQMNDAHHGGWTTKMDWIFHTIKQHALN
PI3 Kinase α, sequence (P27986 whole entry partner): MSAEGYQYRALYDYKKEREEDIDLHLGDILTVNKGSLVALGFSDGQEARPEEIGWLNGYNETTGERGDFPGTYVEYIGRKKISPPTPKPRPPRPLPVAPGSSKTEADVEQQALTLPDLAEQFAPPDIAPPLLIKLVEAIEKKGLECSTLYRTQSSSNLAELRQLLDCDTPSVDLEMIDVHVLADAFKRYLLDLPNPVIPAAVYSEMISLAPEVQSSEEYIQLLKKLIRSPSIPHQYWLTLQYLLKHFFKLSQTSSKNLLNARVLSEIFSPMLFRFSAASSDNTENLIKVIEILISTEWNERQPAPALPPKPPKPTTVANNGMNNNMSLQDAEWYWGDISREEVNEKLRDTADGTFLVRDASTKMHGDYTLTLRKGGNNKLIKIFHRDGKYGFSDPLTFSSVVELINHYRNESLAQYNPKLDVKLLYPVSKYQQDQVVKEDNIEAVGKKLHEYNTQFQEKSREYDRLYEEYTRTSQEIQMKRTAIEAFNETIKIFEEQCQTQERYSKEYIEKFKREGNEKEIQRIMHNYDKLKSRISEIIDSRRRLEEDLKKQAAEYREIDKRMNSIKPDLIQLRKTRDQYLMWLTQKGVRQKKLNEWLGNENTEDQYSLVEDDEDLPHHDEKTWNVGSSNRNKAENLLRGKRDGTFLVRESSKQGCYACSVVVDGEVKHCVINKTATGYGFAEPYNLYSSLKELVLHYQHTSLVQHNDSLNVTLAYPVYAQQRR

[3] = target: PI3 Kinase γ (Homo sapiens, UniProt P48736); assay: PI3K fluorescence polarization assay (PI3 Kinase γ); details: 20 uM PIP2, 25 uM ATP
PI3 Kinase γ, sequence (P48736 whole entry): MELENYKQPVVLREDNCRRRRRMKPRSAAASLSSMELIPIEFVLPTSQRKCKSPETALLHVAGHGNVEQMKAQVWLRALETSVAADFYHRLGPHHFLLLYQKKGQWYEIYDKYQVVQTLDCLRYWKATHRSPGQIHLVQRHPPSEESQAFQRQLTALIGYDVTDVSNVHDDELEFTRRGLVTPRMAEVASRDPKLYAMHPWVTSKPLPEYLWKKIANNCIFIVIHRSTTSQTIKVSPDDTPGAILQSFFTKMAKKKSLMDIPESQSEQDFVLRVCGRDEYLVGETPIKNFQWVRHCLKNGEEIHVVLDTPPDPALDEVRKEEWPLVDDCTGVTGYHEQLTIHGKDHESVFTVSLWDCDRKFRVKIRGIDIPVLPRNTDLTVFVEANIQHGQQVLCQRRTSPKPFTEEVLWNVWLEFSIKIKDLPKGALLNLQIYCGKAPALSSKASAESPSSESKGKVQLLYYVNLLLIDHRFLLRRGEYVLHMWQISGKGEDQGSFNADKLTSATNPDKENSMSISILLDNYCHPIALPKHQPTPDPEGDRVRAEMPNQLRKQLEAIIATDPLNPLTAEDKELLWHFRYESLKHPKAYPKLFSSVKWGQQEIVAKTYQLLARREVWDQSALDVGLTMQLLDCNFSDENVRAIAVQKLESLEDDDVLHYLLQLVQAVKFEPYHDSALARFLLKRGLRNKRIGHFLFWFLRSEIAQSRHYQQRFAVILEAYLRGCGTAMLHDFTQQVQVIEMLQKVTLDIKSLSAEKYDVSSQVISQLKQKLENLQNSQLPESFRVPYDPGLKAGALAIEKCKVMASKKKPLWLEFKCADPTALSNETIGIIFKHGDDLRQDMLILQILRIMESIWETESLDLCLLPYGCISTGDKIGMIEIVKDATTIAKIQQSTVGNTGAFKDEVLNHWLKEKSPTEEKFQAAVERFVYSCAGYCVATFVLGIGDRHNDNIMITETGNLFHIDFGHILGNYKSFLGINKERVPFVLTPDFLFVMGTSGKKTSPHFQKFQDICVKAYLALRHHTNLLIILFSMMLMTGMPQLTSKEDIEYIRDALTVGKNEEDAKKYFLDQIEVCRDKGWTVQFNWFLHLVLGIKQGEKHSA
Procedure: Buffers: Reaction Buffer: 20 mM HEPES pH7.5, 2 mM MgCl2, 0.05% CHAPS, and 0.01% bME (added fresh); STOP/detection Buffer: 100 mM HEPES pH7.5, 4 mM EDTA, 0.05% CHAPS. STOCKS: ATP 20 mM in H2O; PIP2 (diC8, Echelon cat# P-4508) 1 mM in H2O MW=856.5; GST-murine GRP 1.5 mg/ml in 17% glycerol; Red detector probe-Echelon (TAMRA) 2.5 uM. Plate: Nunc 384 well black polypropylene fluor. Plate.
Assay: The assay is run by putting 9.5 ul of freshly diluted enzyme (in “reaction buffer”) per well, then 0.5 ul of diluted drug or DMSO mixing. Then 10 ul of substrate is added to start the reaction. The mixture is incubated 30-60 minutes, room temp, then stopped with 20 ul of stop/detector mix. The substrate solution, is 40 μM PIP2 and 50 uM ATP in reaction buffer. Addition of 10 ul of substrate to each well starts the reaction. This is 20 uM PIP2, 25 uM ATP final in reaction.
Stop/detector mix: 10 nM TAMRA detector, 40 nM GST-GRP in STOP/detection buffer. To stop reaction: add 20 ul Stop/detector mix per well and mix well. Wait 90-110 minutes before reading plate. Plates are read on Perkin-Elmer Envision plate readers with filters for Tamra. Keep Red probe solutions dark. This procedure is adapted from Echelon Biosciences Inc procedure for their PI3-Kinase fluorescence polarization activity Assay kit Product number K-1100.

Row | Structure (SMILES) | IC50 [1] | IC50 [2] | IC50 [3]
1 | Oc1cccc(-c2nc(N3CCOCC3)c3[nH]ccc3n2)c1 [Example 2, 3-(4-morpholin-4-yl-5H-pyrrolo[3,2-d]pyrimidin-2-yl)phenol] | – | – | 0.164 µM
2 | CC(C)(C)OC(=O)NCCN1CCC(c2c[nH]c3c(N4CCOCC4)nc(-c4cccc(O)c4)nc23)CC1 [Example 36, tert-Butyl (2-{4-[2-(3-hydroxyphenyl)-4-morpholin-4-yl-5H-pyrrolo[3,2-d]pyrimidin-7-yl]piperidin-1-yl}ethyl)carbamate] | 0.58 µM | 0.222 µM | 1.73 µM
3 | OCc1cccc(-c2nc(N3CCOCC3)c3[nH]cc(CN4CCN(Cc5ccccc5)CC4)c3n2)c1 [Example 15] | 5.8 µM | 0.24 µM | 2.39 µM
4 | Cn1cc(CN2CCCC2)c2nc(-c3cccc(CO)c3)nc(N3CCOCC3)c21 [Example 47, {3-[5-methyl-4-morpholin-4-yl-7-(pyrrolidin-1-ylmethyl)-5H-pyrrolo[3,2-d]pyrimidin-2-yl]phenyl}methanol] | > 4 µM | – | > 10 µM
5 | Oc1cccc(-c2nc(N3CCOCC3)c3[nH]cc(C4CCN(Cc5ccccc5)CC4)c3n2)c1 [Example 26, 3-[7-(1-benzylpiperidin-4-yl)-4-morpholin-4-yl-5H-pyrrolo[3,2-d]pyrimidin-2-yl]phenol] | – | – | 0.89 µM
6 | OCc1cccc(-c2nc(N3CCOCC3)c3[nH]cc(C4=CCNCC4)c3n2)c1 [Example 24, {3-[4-morpholin-4-yl-7-(1,2,3,6-tetrahydropyridin-4-yl)-5H-pyrrolo[3,2-d]pyrimidin-2-yl]phenyl}methanol] | 3.4 µM | 0.41 µM | 1.2 µM
7 | OCc1cccc(-c2nc(N3CCOCC3)c3[nH]cc(CN4CCN(c5ncccn5)CC4)c3n2)c1 [Example 14] | 2.2 µM | 0.089 µM | 4.51 µM
8 | OCc1cccc(-c2nc(N3CCOCC3)c3[nH]cc(C4=CCN(Cc5ccccc5)CC4)c3n2)c1 [Example 25, {3-[7-(1-benzyl-1,2,3,6-tetrahydropyridin-4-yl)-4-morpholin-4-yl-5H-pyrrolo[3,2-d]pyrimidin-2-yl]phenyl}methanol] | 1.7 µM | 0.26 µM | 2.79 µM
9 | O=C(NCCCn1ccnc1)Nc1cccc(-c2nc(N3CCOCC3)c3[nH]ccc3n2)c1 [Example 42, 1-[3-(1H-imidazol-1-yl)propyl]-3-[3-(4-morpholin-4-yl-5H-pyrrolo[3,2-d]pyrimidin-2-yl)phenyl]urea] | > 4 µM | 8.94 µM | > 10 µM
10 | CN(C)CCNC(=O)Nc1cccc(-c2nc(N3CCOCC3)c3[nH]ccc3n2)c1 [Example 40, 1-[2-(dimethylamino)ethyl]-3-[3-(4-morpholin-4-yl-5H-pyrrolo[3,2-d]pyrimidin-2-yl)phenyl]urea] | > 4 µM | 4.68 µM | 9.5 µM
11 | C1=C(c2c[nH]c3c(N4CCOCC4)nc(-c4cccc(OCc5ccccc5)c4)nc23)CCNC1 [Example 21, 2-[3-(benzyloxy)phenyl]-4-morpholin-4-yl-7-(1,2,3,6-tetrahydropyridin-4-yl)-5H-pyrrolo[3,2-d]pyrimidine] | 7 µM | > 10 µM | > 10 µM
12 | Oc1cccc(-c2nc(N3CCOCC3)c3[nH]cc(C4CCN(C5CCCCC5)CC4)c3n2)c1 [Example 31, 3-[7-(1-cyclohexylpiperidin-4-yl)-4-morpholin-4-yl-5H-pyrrolo[3,2-d]pyrimidin-2-yl]phenol] | 0.37 µM | 0.25 µM | 2.49 µM
13 | Oc1cccc(-c2nc(N3CCOCC3)c3[nH]cc(C4CCN(Cc5ncc[nH]5)CC4)c3n2)c1 [Example 28, 3-{7-[1-(1H-imidazol-2-ylmethyl)piperidin-4-yl]-4-morpholin-4-yl-5H-pyrrolo[3,2-d]pyrimidin-2-yl}phenol] | 2.5 µM | 0.358 µM | 0.983 µM
14 | O=C1COCCN1c1nc(-c2cccc(O)c2)nc2cc[nH]c12 [Example 48, 4-[2-(3-hydroxyphenyl)-5H-pyrrolo[3,2-d]pyrimidin-4-yl]morpholin-3-one] | 0.505 µM | 1.18 µM | 2 µM
15 | O=C(NCc1cccnc1)Nc1cccc(-c2nc(N3CCOCC3)c3[nH]ccc3n2)c1 [Example 44, 1-[3-(4-morpholin-4-yl-5H-pyrrolo[3,2-d]pyrimidin-2-yl)phenyl]-3-(pyridin-3-ylmethyl)urea] | > 4 µM | > 10 µM | > 10 µM
16 | Oc1cccc(-c2nc(N3CCOCC3)c3[nH]cc(C4CCN(Cc5ccc(Cl)nc5)CC4)c3n2)c1 [Example 35, 3-(7-{1-[(6-chloropyridin-3-yl)methyl]piperidin-4-yl}-4-morpholin-4-yl-5H-pyrrolo[3,2-d]pyrimidin-2-yl)phenol] | 0.735 µM | – | –
17 | Oc1cccc(-c2nc(N3CCOCC3)c3[nH]cc(C4CCN(Cc5ccc(F)cc5)CC4)c3n2)c1 [Example 23, 3-{7-[1-(4-fluorobenzyl)piperidin-4-yl]-4-morpholin-4-yl-5H-pyrrolo[3,2-d]pyrimidin-2-yl}phenol] | – | – | 1.07 µM
18 | Oc1cccc(-c2nc(N3CCOCC3)c3[nH]cc(C4CCN(Cc5ccccn5)CC4)c3n2)c1 [Example 38, 3-{4-morpholin-4-yl-7-[1-(pyridin-2-ylmethyl)piperidin-4-yl]-5H-pyrrolo[3,2-d]pyrimidin-2-yl}phenol] | 0.605 µM | 0.14 µM | 0.611 µM
19 | Oc1cccc(-c2nc(N3CCOCC3)c3[nH]cc(C4CCNCC4)c3n2)c1 [Example 22, 3-(4-morpholin-4-yl-7-piperidin-4-yl-5H-pyrrolo[3,2-d]pyrimidin-2-yl)phenol] | – | – | 1.07 µM
20 | Cc1cccc(-c2nc(N3CCOCC3)c3[nH]ccc3n2)c1 [Example 4, 2-(3-methylphenyl)-4-morpholin-4-yl-5H-pyrrolo[3,2-d]pyrimidine] | 5 µM | – | > 8.7 µM
21 | Cn1ccc2nc(-c3cccc(CO)c3)nc(N3CCOCC3)c21 [Example 45, [3-(5-methyl-4-morpholin-4-yl-5H-pyrrolo[3,2-d]pyrimidin-2-yl)phenyl]methanol] | > 4 µM | – | 8.11 µM
22 | Nc1cccc(-c2nc(N3CCOCC3)c3[nH]ccc3n2)c1 [Example 5, 3-(4-morpholin-4-yl-5H-pyrrolo[3,2-d]pyrimidin-2-yl)aniline] | 0.43 µM | – | 8 µM

Second part, the compound after the results:

Row | IC50 [1] | IC50 [2] | IC50 [3] | Structure (SMILES)
23 | 3.3 µM | 0.074 µM | 1.15 µM | CN(C)Cc1c[nH]c2c(N3CCOCC3)nc(-c3cccc(O)c3)nc12 [Example 18, 3-{7-[(dimethylamino)methyl]-4-morpholin-4-yl-5H-pyrrolo[3,2-d]pyrimidin-2-yl}phenol]
24 | 5.5 µM | 0.074 µM | 2.87 µM | OCc1cccc(-c2nc(N3CCOCC3)c3[nH]cc(CNCc4cccnc4)c3n2)c1 [Example 9, [3-(4-morpholin-4-yl-7-{[(pyridin-3-ylmethyl)amino]methyl}-5H-pyrrolo[3,2-d]pyrimidin-2-yl)phenyl]methanol]
25 | 7.85 µM | 0.062 µM | 2.02 µM | CN1CCN(Cc2c[nH]c3c(N4CCOCC4)nc(-c4cccc(CO)c4)nc23)CC1 [Example 10]
26 | – | – | 0.918 µM | OCc1cccc(-c2nc(N3CCOCC3)c3[nH]ccc3n2)c1 [Example 3, [3-(4-morpholin-4-yl-5H-pyrrolo[3,2-d]pyrimidin-2-yl)phenyl]methanol]
27 | 0.26 µM | 0.028 µM | 0.818 µM | CCN(CC)Cc1c[nH]c2c(N3CCOCC3)nc(-c3cccc(CO)c3)nc12 [Example 13]
28 | – | – | 0.561 µM | CN(C)Cc1c[nH]c2c(N3CCOCC3)nc(-c3cccc(CO)c3)nc12 [Example 12]
29 | 3.25 µM | 0.105 µM | 1.56 µM | Oc1cccc(-c2nc(N3CCOCC3)c3[nH]cc(CN4CCCC4)c3n2)c1 [Example 17, 3-[4-morpholin-4-yl-7-(pyrrolidin-1-ylmethyl)-5H-pyrrolo[3,2-d]pyrimidin-2-yl]phenol]
30 | 3.1 µM | 0.132 µM | 1.82 µM | CCN(CC)Cc1c[nH]c2c(N3CCOCC3)nc(-c3cccc(O)c3)nc12 [Example 19, 3-{7-[(diethylamino)methyl]-4-morpholin-4-yl-5H-pyrrolo[3,2-d]pyrimidin-2-yl}phenol]
31 | 4.3 µM | 0.03 µM | 0.51 µM | OCc1cccc(-c2nc(N3CCOCC3)c3[nH]cc(CN4CCNCC4)c3n2)c1 [Example 11, {3-[4-morpholin-4-yl-7-(piperazin-1-ylmethyl)-5H-pyrrolo[3,2-d]pyrimidin-2-yl]phenyl}methanol]
32 | – | – | 1.12 µM | OCc1cccc(-c2nc(N3CCOCC3)c3[nH]cc(CN4CCCC4)c3n2)c1 [Example 7, {3-[4-morpholin-4-yl-7-(pyrrolidin-1-ylmethyl)-5H-pyrrolo[3,2-d]pyrimidin-2-yl]phenyl}methanol]
